Source: patent publication US9139557B2, “Carboxamide compounds and their use as calpain inhibitors” (Abbott GmbH & Co. KG, priority 2006, dated 2015)

How the values were obtained:
Assay type in all cases: biochemical
cathepsin B = molecular target: T1, cathepsin B (Homo sapiens, UniProt P07858); assay: Cathepsin B enzyme inhibition in vitro (kinetic fluorescence assay); details: Ki(cathepsin B)/Ki(calpain) ratio
T1 construct: cathepsin B—isolated from human liver; purchased Calbiochem 219362; host or cells: human liver (tissue isolate)
How it was run: (§1)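 Kinetic fluorescence (ex 390/em 460 nm), RT. Calpain-I: 20 nM erythrocyte-derived, 100 μM Suc-Leu-Tyr-AMC, imidazole/CaCl2, pH 7.3. Cathepsins, pH 6.0 MES/EDTA/cysteine: B 0.25 nM liver, 100 μM Z-Phe-Arg-AMC; L 1 nM liver, 2 μM Z-Phe-Arg-AMC; S 0.5 nM recombinant, 20 μM Z-Val-Val-Arg-AMC. Cheng-Prusoff Ki, mean of 2–4 curves.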

cathepsin K = molecular target: T2, cathepsin K (Homo sapiens, UniProt P43235); assay: Cathepsin K enzyme inhibition in vitro (kinetic fluorescence assay); details: Ki(cathepsin K)/Ki(calpain) ratio
T2 construct: purchased Calbiochem 342001; host or cells: E. coli
T2 sequence (P43235 115-329): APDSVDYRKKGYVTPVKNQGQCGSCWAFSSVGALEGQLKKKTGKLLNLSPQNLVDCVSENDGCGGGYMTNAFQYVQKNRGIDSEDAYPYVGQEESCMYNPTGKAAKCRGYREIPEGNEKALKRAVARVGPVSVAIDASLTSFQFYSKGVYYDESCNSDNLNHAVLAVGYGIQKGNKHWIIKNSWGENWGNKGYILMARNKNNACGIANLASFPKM

cathepsin L = molecular target: T3, cathepsin L (Homo sapiens, UniProt P07711); assay: Cathepsin L enzyme inhibition in vitro (kinetic fluorescence assay); details: Ki(cathepsin L)/Ki(calpain) ratio
T3 construct: cathepsin L—isolated from human liver; purchased Calbiochem 219402; host or cells: human liver (tissue isolate)
How it was run: as §1

cathepsin S = molecular target: T4, cathepsin S (Homo sapiens, UniProt P25774); assay: Cathepsin S enzyme inhibition in vitro (kinetic fluorescence assay); details: Ki(cathepsin S)/Ki(calpain) ratio
T4 construct: purchased Calbiochem 219343; host or cells: E. coli
How it was run: as §1

T4 sequence (P25774 115-331): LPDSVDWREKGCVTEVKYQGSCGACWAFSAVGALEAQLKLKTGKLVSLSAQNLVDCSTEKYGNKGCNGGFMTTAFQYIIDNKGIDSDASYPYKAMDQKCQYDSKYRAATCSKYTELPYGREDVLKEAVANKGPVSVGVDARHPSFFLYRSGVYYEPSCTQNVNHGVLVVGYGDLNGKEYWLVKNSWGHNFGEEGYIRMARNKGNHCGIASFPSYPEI
T3 sequence (P07711 114-333): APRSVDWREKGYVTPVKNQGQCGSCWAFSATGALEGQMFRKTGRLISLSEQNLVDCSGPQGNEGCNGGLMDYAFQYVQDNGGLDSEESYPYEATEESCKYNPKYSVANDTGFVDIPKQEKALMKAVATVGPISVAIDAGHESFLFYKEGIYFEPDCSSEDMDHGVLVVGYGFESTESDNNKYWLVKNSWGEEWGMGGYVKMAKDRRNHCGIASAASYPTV

| SMILES | Sel cat. B (cathepsin B) | Sel cat. K (cathepsin K) | Sel cat. L (cathepsin L) | Sel cat. S (cathepsin S) |
| --- | --- | --- | --- | --- |
| CS(=O)(=O)Nc1cnc(-n2ccc(-c3ccccc3)n2)c(C(=O)NC(Cc2ccccc2)C(=O)C(N)=O)c1 (stereo not drawn) [Example 158, N-[3-Amino-2,3-dioxo-1-(phenylmethyl)propyl]-5-[(methylsulfonyl)amino]-2-(3-phenyl-1H-pyrazol-1-yl)pyridine-3-carboxamide] | ++ (++ means a Ki(cathepsin B)/Ki(calpain) ratio of ≧30) | ++ (++ means a Ki(cathepsin K)/Ki(calpain) ratio of ≧30) | ++ (++ means a Ki(cathepsin L)/Ki(calpain) ratio of ≧50) | ++ (++ means a Ki(cathepsin S)/Ki(calpain) ratio of ≧100) |
| NC(=O)C(=O)C(Cc1ccccc1)NC(=O)c1cccnc1-n1ccc(-c2cccc3cccnc23)n1 (stereo not drawn) [Example 160, N-[3-amino-2,3-dioxo-1-(phenylmethyl)propyl]-2-(3-quinolin-8-yl-1H-pyrazol-1-yl)pyridine-3-carboxamide] | ++ (++ means a Ki(cathepsin B)/Ki(calpain) ratio of ≧30) | ++ (++ means a Ki(cathepsin K)/Ki(calpain) ratio of ≧30) | ++ (++ means a Ki(cathepsin L)/Ki(calpain) ratio of ≧50) | ++ (++ means a Ki(cathepsin S)/Ki(calpain) ratio of ≧100) |
| NC(=O)C(=O)C(Cc1cccc(F)c1)NC(=O)c1cccnc1-n1ccc(-c2ccccc2OC(F)(F)F)n1 (stereo not drawn) [Example 162, N-{3-Amino-1-[(3-fluorophenyl)methyl]-2,3-dioxopropyl}-2-(3-{2-[(trifluoromethyl)oxy]phenyl}-1H-pyrazol-1-yl)pyridine-3-carboxamide] | ++ (++ means a Ki(cathepsin B)/Ki(calpain) ratio of ≧30) | ++ (++ means a Ki(cathepsin K)/Ki(calpain) ratio of ≧30) | ++ (++ means a Ki(cathepsin L)/Ki(calpain) ratio of ≧50) | ++ (++ means a Ki(cathepsin S)/Ki(calpain) ratio of ≧100) |
| NC(=O)C(=O)C(Cc1ccccc1)NC(=O)c1cccnc1-n1ccc(-c2cc(C(F)(F)F)ccc2CN2CCOCC2)n1 (stereo not drawn) [Example 163, N-[3-Amino-2,3-dioxo-1-(phenylmethyl)propyl]-2-{3-[2-(morpholin-4-ylmethyl)-5-(trifluoromethyl)phenyl]-1H-pyrazol-1-yl}pyridine-3-carboxamide] | + (+ means 10≦Ki(cathepsin B)/Ki(calpain)<30) | + (+ means 10≦Ki(cathepsin K)/Ki(calpain)<30) | + (+ means 30≦Ki(cathepsin L)/Ki(calpain)<50) | ++ (++ means a Ki(cathepsin S)/Ki(calpain) ratio of ≧100) |
| NC(=O)C(=O)C(Cc1ccccc1)NC(=O)c1cccnc1-n1ccc(-c2cccc3c2OCC3)n1 (stereo not drawn) [Example 164, N-[3-Amino-2,3-dioxo-1-(phenylmethyl)propyl]-2-[3-(2,3-dihydro-1-benzofuran-7-yl)-1H-pyrazol-1-yl]pyridine-3-carboxamide] | + (+ means 10≦Ki(cathepsin B)/Ki(calpain)<30) | ++ (++ means a Ki(cathepsin K)/Ki(calpain) ratio of ≧30) | ++ (++ means a Ki(cathepsin L)/Ki(calpain) ratio of ≧50) | ++ (++ means a Ki(cathepsin S)/Ki(calpain) ratio of ≧100) |
| NC(=O)C(=O)C(Cc1ccccc1)NC(=O)c1cccnc1-n1ccc(-c2ccccc2OC(F)F)n1 (stereo not drawn) [Example 166, N-[3-Amino-2,3-dioxo-1-(phenylmethyl)propyl]-2-(3-{2-[(difluoromethyl)oxy]phenyl}-1H-pyrazol-1-yl)pyridine-3-carboxamide] | + (+ means 10≦Ki(cathepsin B)/Ki(calpain)<30) | ++ (++ means a Ki(cathepsin K)/Ki(calpain) ratio of ≧30) | ++ (++ means a Ki(cathepsin L)/Ki(calpain) ratio of ≧50) | ++ (++ means a Ki(cathepsin S)/Ki(calpain) ratio of ≧100) |
